Experimental data from the Kinase Knowledgebase extract (Sharma et al. 2016).
pIC50: −log10 of the molar value.

Key:
Assay in all cases: Enzyme Assay
PIK3CA (human) = PIK3CA (human) (UniProt P42336)
PIK3CB (Human) = PIK3CB (Human) (UniProt P42338)
PIK3CD (Human) = PIK3CD (Human) (UniProt O00329)
PIK3CG (human) = PIK3CG (human) (UniProt P48736)
Chain of PIK3CG (human) (P48736 whole entry, looked up): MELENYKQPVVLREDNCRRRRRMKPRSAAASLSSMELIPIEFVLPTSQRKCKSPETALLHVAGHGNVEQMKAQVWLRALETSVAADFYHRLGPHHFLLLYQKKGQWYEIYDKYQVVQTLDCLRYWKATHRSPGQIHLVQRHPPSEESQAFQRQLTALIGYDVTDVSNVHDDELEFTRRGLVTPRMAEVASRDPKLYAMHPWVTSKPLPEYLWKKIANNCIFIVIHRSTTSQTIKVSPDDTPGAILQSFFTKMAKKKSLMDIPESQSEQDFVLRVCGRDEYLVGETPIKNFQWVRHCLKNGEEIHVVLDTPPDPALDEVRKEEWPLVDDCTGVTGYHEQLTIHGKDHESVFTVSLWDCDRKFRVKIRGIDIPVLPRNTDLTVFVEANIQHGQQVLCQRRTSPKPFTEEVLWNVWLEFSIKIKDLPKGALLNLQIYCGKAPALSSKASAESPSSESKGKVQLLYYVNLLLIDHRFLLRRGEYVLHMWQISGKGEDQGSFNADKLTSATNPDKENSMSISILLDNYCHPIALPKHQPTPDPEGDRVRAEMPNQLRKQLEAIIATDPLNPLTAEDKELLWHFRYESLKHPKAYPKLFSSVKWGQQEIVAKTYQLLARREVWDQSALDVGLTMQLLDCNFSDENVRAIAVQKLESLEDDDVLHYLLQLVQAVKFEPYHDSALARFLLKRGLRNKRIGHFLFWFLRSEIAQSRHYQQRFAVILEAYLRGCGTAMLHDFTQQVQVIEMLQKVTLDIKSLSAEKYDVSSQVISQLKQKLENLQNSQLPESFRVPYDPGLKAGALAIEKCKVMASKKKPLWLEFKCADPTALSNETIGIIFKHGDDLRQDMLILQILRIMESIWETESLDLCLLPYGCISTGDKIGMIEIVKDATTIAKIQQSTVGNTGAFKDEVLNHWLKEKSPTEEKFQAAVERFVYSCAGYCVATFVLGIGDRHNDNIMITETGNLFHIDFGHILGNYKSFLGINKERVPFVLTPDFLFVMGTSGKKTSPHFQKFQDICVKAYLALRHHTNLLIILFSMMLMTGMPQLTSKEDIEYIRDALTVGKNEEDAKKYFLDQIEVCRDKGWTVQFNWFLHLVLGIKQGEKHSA

Chain of PIK3CD (Human) (O00329 whole entry, looked up): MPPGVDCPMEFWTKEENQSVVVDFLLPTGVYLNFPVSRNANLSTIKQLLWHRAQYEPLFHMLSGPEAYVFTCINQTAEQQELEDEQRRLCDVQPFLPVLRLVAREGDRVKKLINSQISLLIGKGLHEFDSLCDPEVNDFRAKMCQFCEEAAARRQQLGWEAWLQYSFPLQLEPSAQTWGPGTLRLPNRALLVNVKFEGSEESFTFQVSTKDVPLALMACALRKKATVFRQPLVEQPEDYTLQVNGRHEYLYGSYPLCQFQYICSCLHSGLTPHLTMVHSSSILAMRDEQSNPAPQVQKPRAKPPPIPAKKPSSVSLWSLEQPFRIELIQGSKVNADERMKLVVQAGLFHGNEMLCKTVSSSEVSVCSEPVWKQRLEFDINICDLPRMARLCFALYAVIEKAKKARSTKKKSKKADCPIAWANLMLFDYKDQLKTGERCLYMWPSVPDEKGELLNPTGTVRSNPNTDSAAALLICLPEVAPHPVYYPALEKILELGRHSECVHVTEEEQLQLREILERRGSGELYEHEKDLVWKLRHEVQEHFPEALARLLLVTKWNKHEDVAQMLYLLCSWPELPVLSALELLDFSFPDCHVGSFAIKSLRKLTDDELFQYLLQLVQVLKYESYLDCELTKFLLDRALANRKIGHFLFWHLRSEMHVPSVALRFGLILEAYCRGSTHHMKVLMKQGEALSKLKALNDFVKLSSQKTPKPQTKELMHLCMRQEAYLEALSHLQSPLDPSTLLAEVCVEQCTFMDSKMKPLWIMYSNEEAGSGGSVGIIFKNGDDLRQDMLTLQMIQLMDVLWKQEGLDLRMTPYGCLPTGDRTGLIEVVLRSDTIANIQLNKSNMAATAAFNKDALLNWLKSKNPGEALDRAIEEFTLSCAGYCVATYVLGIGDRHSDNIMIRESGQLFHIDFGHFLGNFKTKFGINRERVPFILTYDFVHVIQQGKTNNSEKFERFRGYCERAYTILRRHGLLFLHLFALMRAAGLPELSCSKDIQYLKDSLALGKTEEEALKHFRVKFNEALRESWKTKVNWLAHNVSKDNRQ
Chain of PIK3CB (Human) (P42338 whole entry, looked up): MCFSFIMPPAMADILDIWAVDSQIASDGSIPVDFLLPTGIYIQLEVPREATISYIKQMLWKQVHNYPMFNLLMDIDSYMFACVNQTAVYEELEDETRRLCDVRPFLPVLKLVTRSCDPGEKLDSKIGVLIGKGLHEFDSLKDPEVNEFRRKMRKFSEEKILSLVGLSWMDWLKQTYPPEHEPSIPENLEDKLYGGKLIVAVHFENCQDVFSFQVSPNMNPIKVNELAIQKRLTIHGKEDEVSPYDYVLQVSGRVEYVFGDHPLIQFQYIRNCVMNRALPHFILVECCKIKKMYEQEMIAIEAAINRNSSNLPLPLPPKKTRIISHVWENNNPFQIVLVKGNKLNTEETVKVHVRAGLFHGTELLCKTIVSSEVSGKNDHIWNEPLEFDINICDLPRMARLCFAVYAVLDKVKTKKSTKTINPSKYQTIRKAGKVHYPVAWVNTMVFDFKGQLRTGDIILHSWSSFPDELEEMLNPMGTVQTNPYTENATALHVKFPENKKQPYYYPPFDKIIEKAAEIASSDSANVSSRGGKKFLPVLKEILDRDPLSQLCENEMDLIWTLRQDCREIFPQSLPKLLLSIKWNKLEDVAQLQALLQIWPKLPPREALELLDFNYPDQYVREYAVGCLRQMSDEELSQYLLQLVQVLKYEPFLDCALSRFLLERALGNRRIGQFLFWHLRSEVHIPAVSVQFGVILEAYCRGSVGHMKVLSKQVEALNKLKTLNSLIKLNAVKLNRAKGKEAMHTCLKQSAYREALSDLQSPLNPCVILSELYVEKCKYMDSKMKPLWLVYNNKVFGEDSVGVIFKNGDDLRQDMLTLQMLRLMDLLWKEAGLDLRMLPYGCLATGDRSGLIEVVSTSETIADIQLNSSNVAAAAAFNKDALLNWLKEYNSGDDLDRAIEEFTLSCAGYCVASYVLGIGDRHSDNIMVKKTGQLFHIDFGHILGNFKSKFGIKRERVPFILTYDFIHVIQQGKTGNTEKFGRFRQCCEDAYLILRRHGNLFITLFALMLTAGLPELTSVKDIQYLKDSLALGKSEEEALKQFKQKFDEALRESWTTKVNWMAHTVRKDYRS
Chain of PIK3CA (human) (P42336 whole entry, looked up): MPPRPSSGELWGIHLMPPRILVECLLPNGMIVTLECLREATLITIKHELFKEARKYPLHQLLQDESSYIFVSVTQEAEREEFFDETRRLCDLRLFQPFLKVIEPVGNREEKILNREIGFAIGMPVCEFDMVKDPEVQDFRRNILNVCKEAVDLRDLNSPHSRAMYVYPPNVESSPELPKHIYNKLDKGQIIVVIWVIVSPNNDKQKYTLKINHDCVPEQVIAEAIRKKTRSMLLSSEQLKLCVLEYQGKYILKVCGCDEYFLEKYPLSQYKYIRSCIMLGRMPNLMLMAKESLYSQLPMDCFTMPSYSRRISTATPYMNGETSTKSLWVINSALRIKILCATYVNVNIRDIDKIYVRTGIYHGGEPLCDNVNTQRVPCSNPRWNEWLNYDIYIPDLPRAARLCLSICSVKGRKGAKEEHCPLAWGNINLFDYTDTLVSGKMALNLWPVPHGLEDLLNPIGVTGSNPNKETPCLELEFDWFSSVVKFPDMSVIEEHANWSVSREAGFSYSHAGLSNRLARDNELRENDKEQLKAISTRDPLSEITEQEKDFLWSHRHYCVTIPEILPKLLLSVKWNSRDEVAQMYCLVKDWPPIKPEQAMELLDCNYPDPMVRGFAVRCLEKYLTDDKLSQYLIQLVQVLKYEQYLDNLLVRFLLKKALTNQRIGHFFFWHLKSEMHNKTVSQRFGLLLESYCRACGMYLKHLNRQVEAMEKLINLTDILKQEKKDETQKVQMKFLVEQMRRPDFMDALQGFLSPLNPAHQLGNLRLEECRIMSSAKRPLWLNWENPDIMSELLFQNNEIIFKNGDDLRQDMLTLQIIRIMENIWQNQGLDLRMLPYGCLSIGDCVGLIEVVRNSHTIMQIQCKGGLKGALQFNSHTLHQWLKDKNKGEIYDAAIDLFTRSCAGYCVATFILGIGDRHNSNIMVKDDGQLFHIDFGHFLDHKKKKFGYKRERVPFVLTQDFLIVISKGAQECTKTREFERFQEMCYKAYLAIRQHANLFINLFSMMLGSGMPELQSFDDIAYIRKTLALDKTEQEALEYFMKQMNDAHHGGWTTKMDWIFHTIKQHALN

| pIC50 (PIK3CA (human)) | pIC50 (PIK3CB (Human)) | pIC50 (PIK3CD (Human)) | pIC50 (PIK3CG (human)) | SMILES |
| --- | --- | --- | --- | --- |
|  |  |  | 5.13 | COC(=O)Nc1ccc(-c2nc(N3CCOCC3)c3cnn(C4CCN(C(=O)OC)CC4)c3n2)cc1 |
|  | < 5.00 |  | < 5.00 | CNC(=O)Nc1ccc(-c2nc(N3CC4CCC(C3)O4)c3cnn(C4CCC5(CC4)OCCO5)c3n2)cc1 |
|  | 7.46 | 8.40 | 6.48 | CN1CCN(Cc2cc3nc(-c4cccc(O)c4)nc(N4CCOCC4)c3s2)CC1 |
|  |  |  | 5.51 | COC(=O)Nc1ccc(-c2nc(N3CCOCC3)c3cnn(C4CCN(Cc5cccnc5)CC4)c3n2)cc1 |
|  |  |  | 5.07 | c1cncc(CN2CCC(n3ncc4c(N5CCOCC5)nc(-c5ccc6[nH]ccc6c5)nc43)CC2)c1 |

Further lines, the molecule ahead of its results:

| SMILES | pIC50 (PIK3CA (human)) | pIC50 (PIK3CB (Human)) | pIC50 (PIK3CD (Human)) | pIC50 (PIK3CG (human)) |
| --- | --- | --- | --- | --- |
| COc1ccc(-c2ccc3c(N4CCOC[C@@H]4C)nc(N4CCOC[C@@H]4C)nc3n2)cc1CO | 5.44 | 4.72 | 5.49 | < 4.83 |
| OCCN1CCN(Cc2cc3nc(-c4cccc(O)c4)nc(N4CCOCC4)c3s2)CC1 |  | 7.20 | 8.10 | 6.17 |
| COc1ncc(-c2ccc3nccc(-c4ccnnc4)c3c2)cc1NS(=O)(=O)c1ccc(F)cc1F |  |  |  | 10.22 |
| CCC(NC(=O)C(CC(=O)O)NC(=O)CNC(=O)C(CCCN=C(N)N)NC(=O)CCC(=O)O[N+]1(c2cc(=O)c3cccc(-c4ccccc4)c3o2)CCOCC1)C(=O)[O-] (stereo not given) | 6.45 | 6.13 | 5.49 | 5.75 |
